# Test results reported in PMC11284788, “NN1213 – A Potent, Long-Acting, and Selective Analog of Human Amylin” (Journal of Medicinal Chemistry, 2024).
# Tests used:
# hAMY3R = biological target: T1, hAMY3R (Homo sapiens, UniProt O60896+P30988); assay: Whole-cell competition binding, hAMY3R; parameters: expressed in transfected cells; host or cells: BHK tk-ts 13, transient co-transfection; whole cells for the species-specific assays; conditions: IC50 for the CTR divided by that of the AMYR, human receptors
# T1 sequence (P30988 25-474): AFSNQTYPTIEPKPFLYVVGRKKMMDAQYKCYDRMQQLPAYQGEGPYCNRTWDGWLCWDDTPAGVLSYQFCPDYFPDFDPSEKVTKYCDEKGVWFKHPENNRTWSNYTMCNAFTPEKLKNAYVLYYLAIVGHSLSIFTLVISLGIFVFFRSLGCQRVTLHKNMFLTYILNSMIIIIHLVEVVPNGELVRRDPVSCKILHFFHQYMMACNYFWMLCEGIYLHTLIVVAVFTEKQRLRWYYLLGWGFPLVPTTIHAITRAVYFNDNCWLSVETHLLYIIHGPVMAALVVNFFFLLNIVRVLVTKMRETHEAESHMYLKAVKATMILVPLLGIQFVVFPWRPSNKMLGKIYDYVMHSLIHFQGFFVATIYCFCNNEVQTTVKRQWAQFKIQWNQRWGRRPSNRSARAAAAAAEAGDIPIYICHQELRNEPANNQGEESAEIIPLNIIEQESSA
# T1 sequence (O60896 24-148 partner): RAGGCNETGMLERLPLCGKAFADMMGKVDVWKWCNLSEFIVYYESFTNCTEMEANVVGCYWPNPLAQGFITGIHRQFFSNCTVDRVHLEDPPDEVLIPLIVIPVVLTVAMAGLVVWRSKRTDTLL
# beagle dogs = assay: Acute dog food intake assay
# rAMY1R = biological target: T2, rAMY1R (Rattus norvegicus, UniProt P32214+Q9JJ74); assay: Species-specific cAMP assay, rAMY1R; conditions: ratio of cAMP EC50 values, rat receptors
# T2 sequence (P32214 25-516): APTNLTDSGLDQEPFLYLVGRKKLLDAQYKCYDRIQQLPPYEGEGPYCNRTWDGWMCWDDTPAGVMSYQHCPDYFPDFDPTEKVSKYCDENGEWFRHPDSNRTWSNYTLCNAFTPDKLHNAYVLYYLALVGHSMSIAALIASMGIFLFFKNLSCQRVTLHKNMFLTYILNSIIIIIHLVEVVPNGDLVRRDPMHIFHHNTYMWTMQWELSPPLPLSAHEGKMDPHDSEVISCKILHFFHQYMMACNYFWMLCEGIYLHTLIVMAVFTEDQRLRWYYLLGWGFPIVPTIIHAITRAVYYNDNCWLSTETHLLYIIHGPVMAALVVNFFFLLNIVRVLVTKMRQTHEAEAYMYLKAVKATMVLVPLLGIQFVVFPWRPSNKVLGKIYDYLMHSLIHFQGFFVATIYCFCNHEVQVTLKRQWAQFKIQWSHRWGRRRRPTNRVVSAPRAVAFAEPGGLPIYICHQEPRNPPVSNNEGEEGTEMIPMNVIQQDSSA
# T2 sequence (Q9JJ74 27-148 partner): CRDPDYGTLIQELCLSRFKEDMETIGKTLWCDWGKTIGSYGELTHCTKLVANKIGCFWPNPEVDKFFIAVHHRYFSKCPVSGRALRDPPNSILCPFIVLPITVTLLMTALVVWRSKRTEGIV
# cAMY3R = assay: Species-specific cAMP assay, cAMY3R; conditions: for Ratio CTR/AMY3R (canine, functional): ratio of cAMP EC50 values, canine receptors
# hAMY1R = hAMY1R (Homo sapiens, UniProt O60894+P30988); assay: Whole-cell competition binding, hAMY1R; parameters: expressed in transfected cells; host or cells: BHK tk-ts 13, transient co-transfection (FuGENE 6); conditions: IC50 for the CTR divided by that of the AMYR, human receptors
# cAMY1R = assay: Whole-cell competition binding, cAMY1R; conditions: IC50 for the CTR divided by that of the AMYR, canine receptors
# DIO rats = assay: DIO rat weight loss assay; type: in vivo; conditions: for Absolute body weight Day 21: mean ± SEM; for reduction in body weight relative to baseline: 21 days, n = 8/group
# Method: The ability of NN1213 to reduce body weight was tested in DIO rats fed an HFD. Rats were dosed once daily sc with either vehicle or NN1213 (n = 8–10 per group). Food intake and body weight were measured daily on individually housed rats. […] Body fat and lean mass are expressed as changes from baseline.
# VetXX, Specific CCD, Dechra, UK).
# eaten within 30 min. […] In figure 4, mean accumulated food
# rats were assessed in DIO rats.
# controlled temperature conditions (22 °C).
# Pharmacokinetic Evaluation.
# Species n administration (nmol/kg) (h)
# cCTR = assay: Species-specific cAMP assay, cCTR; conditions: cAMP HTRF, transiently transfected BHK cells, 30 min room temperature, five experiments
# Chain of hAMY1R (O60894 27-148 partner, one chain of several): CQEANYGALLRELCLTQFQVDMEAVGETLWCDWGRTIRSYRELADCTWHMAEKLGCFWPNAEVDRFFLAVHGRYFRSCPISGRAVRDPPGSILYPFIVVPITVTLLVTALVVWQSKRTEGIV
smiles,measurement,setting,value
CC[C@H](C)[C@H](NC(=O)[C@H](C)NC(=O)CNC(=O)[C@H](Cc1ccccc1)NC(=O)[C@H](CC(N)=O)NC(=O)[C@@H]1CCCN1C(=O)[C@H](CO)NC(=O)[C@H](CO)NC(=O)[C@H](Cc1c[nH]cn1)NC(=O)[C@H](CCCNC(=N)N)NC(=O)[C@H](CC(C)C)NC(=O)[C@H](Cc1ccccc1)NC(=O)[C@H](CC(=O)O)NC(=O)[C@H](C)NC(=O)[C@H](CC(C)C)NC(=O)[C@H](CCCNC(=N)N)NC(=O)[C@H](CCC(N)=O)NC(=O)[C@@H](NC(=O)[C@H](C)NC(=O)[C@@H]1CSSC[C@H](NC(=O)[C@@H](N)CCCCNC(=O)CC[C@H](NC(=O)CC[C@H](NC(=O)CCCCCCCCCCCCCCCCCCC(=O)O)C(=O)O)C(=O)O)C(=O)N[C@@H](CC(N)=O)C(=O)N[C@@H]([C@@H](C)O)C(=O)N[C@@H](C)C(=O)N[C@@H]([C@@H](C)O)C(=O)N1)[C@@H](C)O)C(=O)N1CCC[C@H]1C(=O)N[C@@H](CO)C(=O)N[C@@H](CO)C(=O)N[C@H](C(=O)N[C@@H](CC(N)=O)C(=O)N[C@H](C(=O)NCC(=O)N[C@@H](CO)C(=O)N[C@@H](CCCNC(=N)N)C(=O)N[C@H](C(=O)N[C@@H](Cc1ccc(O)cc1)C(N)=O)[C@@H](C)O)C(C)C)[C@@H](C)O [NN1213],"Ratio CTR/AMY3R (human, binding)",hAMY3R,67
same,"food intake reduction, first 48 h","beagle dogs; single sc administration 300 nmol/kg, four meals over 48 h",90%
same,effect on appetite,beagle dogs; single sc dose 3 nmol/kg,did not affect appetite
same,duration of appetite suppression,beagle dogs; single sc dose 30 nmol/kg,at least 7 days
same,"tolerability (discomfort, vomiting)",beagle dogs; single sc dose ranging from 3 to 300 nmol/kg,not associated with any signs of discomfort in the dogs and no vomiting
same,"Ratio CTR/AMY1R (rat, functional)",rAMY1R,336
same,cAMY3R pEC50,"cAMY3R; cAMP HTRF, transiently transfected BHK cells, 30 min room temperature, five experiments",9.74
same,"Ratio CTR/AMY3R (canine, functional)",cAMY3R,2
same,"Ratio CTR/AMY3R (canine, functional)",cAMY3R; listed as NN1213/peptide 21,3
same,"Ratio CTR/AMY1R (human, binding)",hAMY1R,120
same,"Ratio CTR/AMY1R (canine, binding)",cAMY1R,73
same,Absolute body weight Day 21,DIO rats; 3 µg/kg (0.7 nmol/kg) sc once daily,705.5 ± 38.4 g
same,Absolute body weight Day 21,DIO rats; 10 µg/kg (2.2 nmol/kg) sc once daily,664.4 ± 19.3 g
same,Absolute body weight Day 21,DIO rats; 30 µg/kg (6.6 nmol/kg) sc once daily,682.4 ± 27.7 g
same,Absolute body weight Day 21,DIO rats; 100 µg/kg (22 nmol/kg) sc once daily,667.8 ± 11.9 g
same,body weight lost after 21 days,DIO rats; high-dose group (22 nmol/kg) sc once daily,69.6 ± 7.5 g
same,body weight lost after 21 days,DIO rats; low-dose group 0.7 nmol/kg sc once daily,32.0 ± 3.6 g
same,reduction in body weight relative to baseline,DIO rats; sc once daily 0.7 nmol/kg,4.7%
same,reduction in body weight relative to baseline,"DIO rats; sc once daily 2.2, 6.6, 22 nmol/kg doses",8.7–9.3%
same,cCTR pEC50,cCTR,9.39
